Results as given in patent publication US5116749A, “γ-glutamylcysteine transferase” (Consortium fur Elektrochemische Industrie GmbH, priority 1988, dated 1992).

Legend:
[1] = system: γ-glutamylcysteine transferase; experiment: KM of γ-glutamylcysteine transferase for its substrates; assay type: biochemical, Silene cucubalus; settings: 30° C. and pH=7.8
[2] = system: γ-glutamylcysteine transferase

Km [1]	Compound	reversibility of the inhibition ([2]; after removal of EDTA and addition of heavy metal ions)	inhibition in the presence of EDTA ([2]; in the presence of ethylenediaminetetraacetic acid)
6.8 mM	N[C@@H](CCC(=O)N[C@@H](CS)C(=O)NCC(=O)O)C(=O)O [glutathione]	–	–
1 mM	Cc1c(C)n2c(CSC[C@H](NC(=O)CC[C@H](N)C(=O)O)C(=O)NCC(=O)O)c(C)c(=O)n2c1=O [glutathione S-biman]	–	–
–	O=C(O)CN(CCN(CC(=O)O)CC(=O)O)CC(=O)O [ethylenediaminetetraacetic acid (EDTA), ethylenediaminetetraacetic acid]	reversible	complete inhibition
